# From patent US6265450A, “Anti-stress composition” (Suntory Limited, priority 1995, dated 2001)
# Where two headings read alike, the source gives them in different places.
# Key:
# P815 mastocytoma = assay: Effect of restraint stress on promotion of cancer metastasis (transplanted nodes on liver surface); assay type: in vivo, male DBA/2 mice; conditions: Roche synthetic astaxanthin, 1 mg/kg by gavage three times in MCT; 16 days after transplantation; FIG. 7
# Protocol: 7 week old, male DBA/2 mice were purchased from Japan Clea Co., Ltd., and after housing on a preliminary basis for 1 week in a specific pathogen free (SPF) atmosphere, the animals were used in the experiment at age 8 weeks.
# The experimental mice were divided into three groups consisting of a restraint stress non-loaded control group (8 mice), a restraint stress loaded control group (8 mice) and a restraint stress loaded astaxanthin group (9 mice). Astaxanthin was administered orally by gavage three times on the day before restraint, immediately after the start of restraint and the day after the start of restraint at a dose of 1 mg/kg (MCT solution) each. Roche astaxanthin, a synthetic form of astaxanthin, was used for the test substance, while the control groups were orally administered MCT only three times by gavage. Restraint stress loading was performed under the same conditions as Example 1.
# Mastocytoma subcultured in the abdominal cavities of DBA/2 mice in this laboratory was used for the P815 mastocytoma (DBA/2 mouse cutaneous mastocytoma). 1×10^4 cells/animal were transplanted into the caudal vein of each animal. […] The liver was excised 16 days after transplantation and after Vaughn's fixation, the number of transplanted nodes on the liver surface was measured.
# antibody production = conditions: cited from earlier work
# [1] = cited from earlier work
# thymus weight = assay: Effect of restraint stress on decreased thymus weight; assay type: in vivo, male C57BL/6 mice; conditions: Astaxanthin (Roche) in MCT; for minimal effective dose: Mus musculus, po
# Source text: Six week old, male C57BL/6 mice were purchased from Japan Clea Co., Ltd., and after preliminarily keeping for 1 week in an SPF (specific pathogen free) environment, were used in the experiment at age 7 weeks.
# The mice were divided into a restrained group (16 mice) and a non-restrained group (5 mice). The unrestrained group was used as a control group. The restrained group was further divided into 4 groups of 4 mice each, and designated as the restrained control group, vitamin E group, β-carotene group and astaxanthin group. The restrained groups were restrained for 20 hours in metal restraint cages under conditions of minimal body movement and access to drinking water to induce restraint stress.
# ASTAX 5000 manufactured by Itano Refrigated Food Co., Ltd. (containing 3.57% astaxanthin diester and 1.53% astaxanthin monoester), extracted and purified from krill, was used for astaxanthin. ASTAX 5000 was dissolved in medium chain fatty acid triglyceride (MCT) to a concentration of 100 mg/10 ml as astaxanthin content and used as the test substance solution. Vitamin E and β-carotene were dissolved in MCT, and MCT only was administered to the control group. The test substances were given orally three times on the day before restraint, immediately after restraint, and on the day after restraint at a dose of 100 mg/kg, for each test substance.
# The mice were sacrificed by dislocation of the cervical vertebra 48 hours after the start of restraint. The thymus gland was excised and weighed.
# Astaxanthin (Roche) was dissolved in MCT to astaxanthin concentrations of 0.04 mg/10 ml, 0.2 mg/10 ml, 1.0 mg/10 ml and 5.0 mg/10 ml to prepare the test substance solutions.
# Thymus weight and spleen-origin NK cell activity were measured using the same procedures as described in Examples 1 and 2.
# cancer cell = conditions: cited from earlier work
smiles,measurement,setting,value
CC1=C(/C=C/C(C)=C/C=C/C(C)=C/C=C/C=C(C)/C=C/C=C(C)/C=C/C2=C(C)C(=O)[C@@H](O)CC2(C)C)C(C)(C)C[C@H](O)C1=O [astaxanthin],inhibition of promotion of cancer metastasis caused by stress,P815 mastocytoma,remarkable inhibition of promotion of cancer metastasis
same,antibody production activity,antibody production,antibody production activity
same,oxidation and decomposition in air,[1],easily oxidized and decompose relatively easily in air
same,inhibitory effect on decreases in thymus weight caused by stress loading,"thymus weight; 0.04-5.0 mg/10 ml, FIG. 5",dose-dependent inhibitory effects
same,minimal effective dose,"thymus weight; FIG. 5, read-out: doses at which the effect on decreased thymus weight was significant",≥ 1 mg/kg
same,minimal effective dose,"thymus weight; suggested by thymus weight and NK cell activity, read-out: minimum effective dose of the anti-stress effect",~1 mg/kg
same,cancer cell growth inhibitory activity,cancer cell,cancer cell growth inhibitory activity
